Measured values from patent US9604933B2, “Pyrazolochalcones as potential anticancer agents” (COUNCIL OF SCIENTIFIC AND INDUSTRIAL RESEARCH, priority 2013, dated 2017).

Key:
SF-268 = assay: NCI SRB cytotoxicity, CNS SF-268; format: cell-based; conditions: Homo sapiens, 48 h exposure
Method: (§1) The pyrazolochalcones (7e, 8e, 10e, 11e, 12e, 13e and 8f) have been tested against fifty nine human tumor cell lines derived from nine cancer types (leukemia, non-small cell lung cancer, colon cancer, CNS cancer, melanoma, ovarian cancer, renal cancer, prostate cancer and breast cancer) as per the NCI protocol. For each compound, dose response curves for individual cell lines have been measured at a minimum of five concentrations at 10 fold dilutions. A protocol of 48 h continuous drug exposure has been used, and a sulforhodamine B (SRB) protein assay has been used to estimate cell viability or growth. The concentration for 50% cell growth inhibition (GI50), 50% cell death (LC50, 50% growth) and total cell growth inhibition (TGI, 0% growth) values were tabulated (Table-1). DMSO was used as control to calculate the values of GI50, LC50 and TGI. The compounds 7e, 8e, 10e, 11e, 12e, 13e and 8f has been evaluated for their in vitro cytotoxicity in […] cell lines from nine human cancer types of leukemia (K-562, SR), non-small cell lung (Hop-62, NCI-H226, NCI-H522), colon (HCT-116, HCT-15, HCC-2998), CNS (SF-539), melanoma (SK-MEL-5, UACC-62, M14), ovarian (IGROV1), renal (A498), prostate (PC3) and breast (BT-549, MDA-MB-435, HS578T) origin. The results are expressed as percent of cell growth determined relative to that of untreated control cells (Table 2).

CCRF-CEM = assay: NCI SRB cytotoxicity, leukemia CCRF-CEM; format: cell-based; conditions: Homo sapiens, 48 h exposure
Method: as §1

HCC-2998 = assay: NCI SRB cytotoxicity, colon HCC-2998; format: cell-based; conditions: Homo sapiens, 48 h exposure
Method: as §1

T-47D = assay: NCI SRB cytotoxicity, breast T-47D; format: cell-based; conditions: Homo sapiens, T47D, 48 h exposure
Method: as §1

LOX IMVI = assay: NCI SRB cytotoxicity, melanoma LOX IMVI; format: cell-based; conditions: Homo sapiens, 48 h exposure
Method: as §1

Colon = assay: NCI SRB cytotoxicity, colon panel average; format: cell-based, human; conditions: average of cell lines; for LC50: read-out: Log10 LC50 (concentration in mol/L causing 50% cell death) (converted)
Method: as §1
(§2) Each cancer type represents the average of six to eight different cancer cell lines.

SNB-19 = assay: NCI SRB cytotoxicity, CNS SNB-19; format: cell-based; conditions: Homo sapiens, 48 h exposure
Method: as §1

TK-10 = assay: NCI SRB cytotoxicity, renal TK-10; format: cell-based; conditions: Homo sapiens, 48 h exposure
Method: as §1

UACC-62 = assay: NCI SRB cytotoxicity, melanoma UACC-62; format: cell-based; conditions: Homo sapiens, 48 h exposure
Method: as §1

A549/ATCC = assay: NCI SRB cytotoxicity, non-small cell lung A549/ATCC; format: cell-based; conditions: Homo sapiens, 48 h exposure
Method: as §1

Leukemia = assay: NCI SRB cytotoxicity, leukemia panel average; format: cell-based, human; conditions: average of cell lines; for CC50: read-out: Log10 LC50 (concentration in mol/L causing 50% cell death) (converted)
Method: as §1, §2

SNB-75 = assay: NCI SRB cytotoxicity, CNS SNB-75; format: cell-based; conditions: Homo sapiens, 48 h exposure
Method: as §1

CNS = assay: NCI SRB cytotoxicity, CNS panel average; format: cell-based, human; conditions: average of cell lines; for LC50: read-out: Log10 LC50 (concentration in mol/L causing 50% cell death) (converted)
Method: as §1, §2

UO-31 = assay: NCI SRB cytotoxicity, renal UO-31; format: cell-based; conditions: Homo sapiens, 48 h exposure
Method: as §1

SK-OV-3 = assay: NCI SRB cytotoxicity, ovarian SK-OV-3; format: cell-based; conditions: Homo sapiens, 48 h exposure
Method: as §1

SF-539 = assay: NCI SRB cytotoxicity, CNS SF-539; format: cell-based; conditions: Homo sapiens, 48 h exposure
Method: as §1

Non-small cell lung = assay: NCI SRB cytotoxicity, non-small cell lung panel average; format: cell-based, human; conditions: average of cell lines; for LC50: read-out: Log10 LC50 (concentration in mol/L causing 50% cell death) (converted)
Method: as §1, §2

A498 = assay: NCI SRB cytotoxicity, renal A498; format: cell-based; conditions: Homo sapiens, 48 h exposure
Method: as §1

Melanoma = assay: NCI SRB cytotoxicity, melanoma panel average; format: cell-based, human; conditions: average of cell lines; for LC50: read-out: Log10 LC50 (concentration in mol/L causing 50% cell death) (converted)
Method: as §1, §2

MOLT-4 = assay: NCI SRB cytotoxicity, leukemia MOLT-4; format: cell-based; conditions: Homo sapiens, 48 h exposure
Method: as §1

PC-3 = assay: NCI SRB cytotoxicity, prostate PC-3; format: cell-based; conditions: Homo sapiens, 48 h exposure
Method: as §1

NCI/ADR-RES = assay: NCI SRB cytotoxicity, ovarian NCI/ADR-RES; format: cell-based; conditions: Homo sapiens, 48 h exposure
Method: as §1

MCF7 = assay: NCI SRB cytotoxicity, breast MCF7; format: cell-based; conditions: Homo sapiens, 48 h exposure
Method: as §1

SK-MEL-28 = assay: NCI SRB cytotoxicity, melanoma SK-MEL-28; format: cell-based; conditions: Homo sapiens, 48 h exposure
Method: as §1

NCI-H460 = assay: NCI SRB cytotoxicity, non-small cell lung NCI-H460; format: cell-based; conditions: Homo sapiens, 48 h exposure
Method: as §1

ACHN = assay: NCI SRB cytotoxicity, renal ACHN; format: cell-based; conditions: Homo sapiens, 48 h exposure
Method: as §1

SR = assay: NCI SRB cytotoxicity, leukemia SR; format: cell-based; conditions: Homo sapiens, 48 h exposure
Method: as §1

NCIH322M = assay: NCI SRB cytotoxicity, non-small cell lung NCIH322M; format: cell-based; conditions: Homo sapiens, NCI-H322M, 48 h exposure
Method: as §1

RXF 393 = assay: NCI SRB cytotoxicity, renal RXF 393; format: cell-based; conditions: Homo sapiens, 48 h exposure
Method: as §1

Ovarian = assay: NCI SRB cytotoxicity, ovarian panel average; format: cell-based, human; conditions: average of cell lines; for CC50: read-out: Log10 LC50 (concentration in mol/L causing 50% cell death) (converted)
Method: as §1, §2

HOP92 = assay: NCI SRB cytotoxicity, non-small cell lung HOP92; format: cell-based; conditions: Homo sapiens, HOP-92, 48 h exposure
Method: as §1

[1] = Homo sapiens, read-out: Log10 GI50 (concentration in mol/L causing 50% growth inhibition) (converted)

## COc1cc(-c2cc(/C=C/C(=O)c3ccc(F)c(F)c3)[nH]n2)cc(OC)c1OC [13e, (E)-1-(3,4-difluorophenyl)-3-(3-(3,4,5-trimethoxyphenyl)-1H-pyrazol-5-yl)prop-2-en-1-one]
SF-268
  GI50: 3.15 µM
CCRF-CEM
  GI50: 3.8 µM
HCC-2998
  GI50: 3.69 µM
T-47D
  GI50: 2.45 µM
LOX IMVI
  GI50: 3.18 µM
Colon; Homo sapiens
  LC50: 58.9 µM
Colon
  Log10 GI50 (concentration in mol/L causing 50% growth inhibition): −5.52 mol/L
  Log10 TGI (concentration in mol/L causing total growth inhibition): −4.70 mol/L
SNB-19
  GI50: 3.64 µM
TK-10
  GI50: 2.29 µM
UACC-62
  GI50: 2.38 µM
A549/ATCC
  GI50: 2.43 µM
Leukemia; Homo sapiens
  CC50: 0.0001 mol/L
Leukemia
  Log10 GI50 (concentration in mol/L causing 50% growth inhibition): −5.57 mol/L
  Log10 TGI (concentration in mol/L causing total growth inhibition (0% growth)): −4.76 mol/L
SNB-75
  GI50: 2.9 µM
CNS; Homo sapiens
  LC50: 91.2 µM
CNS
  Log10 GI50 (concentration in mol/L causing 50% growth inhibition): −5.47 mol/L
  Log10 TGI (concentration in mol/L causing total growth inhibition (0% growth)): −4.38 mol/L
UO-31
  GI50: 2.63 µM
SK-OV-3
  GI50: 3.53 µM
SF-539
  GI50: 3.76 µM
Non-small cell lung; Homo sapiens
  LC50: 87.1 µM
Non-small cell lung
  Log10 GI50 (concentration in mol/L causing 50% growth inhibition): −5.54 mol/L
  Log10 TGI (concentration in mol/L causing total growth inhibition (0% growth)): −4.75 mol/L
A498
  GI50: 2.11 µM
Melanoma; Homo sapiens
  LC50: 64.6 µM
Melanoma
  Log10 GI50 (concentration in mol/L causing 50% growth inhibition): −5.56 mol/L
  Log10 TGI (concentration in mol/L causing total growth inhibition): −5.00 mol/L
MOLT-4
  GI50: 2.72 µM
PC-3
  GI50: 1.66 µM
NCI/ADR-RES
  GI50: 3.46 µM
MCF7
  GI50: 3.2 µM
SK-MEL-28
  GI50: 5.31 µM
NCI-H460
  GI50: 2.96 µM
ACHN
  GI50: 3.26 µM
SR
  GI50: 2.92 µM
NCIH322M
  GI50: 3.37 µM
RXF 393
  GI50: 2.05 µM
Ovarian; Homo sapiens
  CC50: 89.1 µM
Ovarian
  Log10 GI50 (concentration in mol/L causing 50% growth inhibition): −5.5 mol/L
  Log10 TGI (concentration in mol/L causing total growth inhibition (0% growth)): −4.45 mol/L

## COc1cc(-c2cc(/C=C/C(=O)c3ccc(Cl)c(Cl)c3)[nH]n2)cc(OC)c1OC [12e, (E)-1-(3,4-dichlorophenyl)-3-(3-(3,4,5-trimethoxyphenyl)-1H-pyrazol-5-yl)prop-2-en-1-one]
SF-268
  GI50: 13.7 µM
CCRF-CEM
  GI50: 2.15 µM
HCC-2998
  GI50: 9.56 µM
T-47D
  GI50: 1.66 µM
LOX IMVI
  GI50: 3.39 µM
Colon; [1]
  GI50: 4.79 µM
Colon; Homo sapiens
  LC50: 100 µM
Colon
  Log10 TGI (concentration in mol/L causing total growth inhibition): −4.34 mol/L
HOP92
  GI50: 2.53 µM
SNB-19
  GI50: 9.83 µM
TK-10
  GI50: 8.34 µM
UACC-62
  GI50: 18.8 µM
A549/ATCC
  GI50: 18.7 µM
Leukemia; [1]
  GI50: 2.09 µM
Leukemia; Homo sapiens
  CC50: 0.0001 mol/L
Leukemia
  Log10 TGI (concentration in mol/L causing total growth inhibition (0% growth)): −4.61 mol/L
SNB-75
  GI50: 8.7 µM
CNS; [1]
  GI50: 8.51 µM
CNS; Homo sapiens
  LC50: 87.1 µM
CNS
  Log10 TGI (concentration in mol/L causing total growth inhibition (0% growth)): −4.25 mol/L
UO-31
  GI50: 5.73 µM
SK-OV-3
  GI50: 4.19 µM
SF-539
  GI50: 4.31 µM
Non-small cell lung; [1]
  GI50: 6.61 µM
Non-small cell lung; Homo sapiens
  LC50: 200 µM
Non-small cell lung
  Log10 TGI (concentration in mol/L causing total growth inhibition (0% growth)): −4.52 mol/L
A498
  GI50: 5.89 µM
Melanoma; [1]
  GI50: 13.2 µM
Melanoma; Homo sapiens
  LC50: 95.5 µM
Melanoma
  Log10 TGI (concentration in mol/L causing total growth inhibition): −4.21 mol/L
MOLT-4
  GI50: 4.38 µM
PC-3
  GI50: 5.95 µM
NCI/ADR-RES
  GI50: 10.6 µM
MCF7
  GI50: 1.8 µM
SK-MEL-28
  GI50: 18.5 µM
NCI-H460
  GI50: 4.9 µM
ACHN
  GI50: 21.4 µM
SR
  GI50: 0.39 µM
NCIH322M
  GI50: 14.5 µM
RXF 393
  GI50: 2.7 µM
Ovarian; [1]
  GI50: 10 µM
Ovarian; Homo sapiens
  CC50: 95.5 µM
Ovarian
  Log10 TGI (concentration in mol/L causing total growth inhibition (0% growth)): −4.27 mol/L
